According to PMC3781056, “New Pyrazolopyrimidine Inhibitors of Protein Kinase D as Potent Anticancer Agents for Prostate Cancer Cells” (PLoS ONE, 2013):
Like-named read-outs stand apart in the source and are kept apart here.

Assays:
[1] = test system: DU145 cells infected with Adv-PKD1 or Adv-PKD3; assay type: cell-based
Procedure: After 20 h, noninvasive cells were removed and invasive cells were fixed in 100% methanol, stained in 0.4% hematoxylin solution, and photographed. The number of cells that invaded the Matrigel matrix was determined by cell counts in 6 fields relative to the number of cells that migrated through the control insert. Percentage invasion was calculated as the percent of the cells invaded through Matrigel inserts vs. the total cells migrated through the control inserts. […] DU145 cells were infected with null, PKD1, and PKD3 adenoviruses (Adv-null, Adv-PKD1, and Adv-PKD3) at 100 MOI. After 24 h, cells were replated in control and Matrigel inserts, and a Matrigel invasion assay was conducted as described above. […] All the above experiments were repeated at least three times and data from a representative experiment are shown.

[2] = test system: DU145 cells infected with Adv-PKD1 or Adv-PKD3; assay type: cell-based; remark: listed apart in the source
Procedure: DU145 cells were infected with null, PKD1, and PKD3 adenoviruses (Adv-null, Adv-PKD1, and Adv-PKD3) at 100 MOI. […] The number of cells that migrated was determined by cell counts in 6 fields. Percentage migration was calculated as the percent of the Adv-null treated with vehicle DMSO (set to 100%). The experiment was repeated three times and data from a representative experiment are shown.

PKD1 = biological target: T1, PKD1 (Homo sapiens, UniProt Q15139); assay: Radiometric PKD kinase assay, 10-point IC50; assay type: biochemical
T1 construct: GST; purchased Enzo Life sciences (Farmingdale, NY)
T1 sequence (Q15139 1-912): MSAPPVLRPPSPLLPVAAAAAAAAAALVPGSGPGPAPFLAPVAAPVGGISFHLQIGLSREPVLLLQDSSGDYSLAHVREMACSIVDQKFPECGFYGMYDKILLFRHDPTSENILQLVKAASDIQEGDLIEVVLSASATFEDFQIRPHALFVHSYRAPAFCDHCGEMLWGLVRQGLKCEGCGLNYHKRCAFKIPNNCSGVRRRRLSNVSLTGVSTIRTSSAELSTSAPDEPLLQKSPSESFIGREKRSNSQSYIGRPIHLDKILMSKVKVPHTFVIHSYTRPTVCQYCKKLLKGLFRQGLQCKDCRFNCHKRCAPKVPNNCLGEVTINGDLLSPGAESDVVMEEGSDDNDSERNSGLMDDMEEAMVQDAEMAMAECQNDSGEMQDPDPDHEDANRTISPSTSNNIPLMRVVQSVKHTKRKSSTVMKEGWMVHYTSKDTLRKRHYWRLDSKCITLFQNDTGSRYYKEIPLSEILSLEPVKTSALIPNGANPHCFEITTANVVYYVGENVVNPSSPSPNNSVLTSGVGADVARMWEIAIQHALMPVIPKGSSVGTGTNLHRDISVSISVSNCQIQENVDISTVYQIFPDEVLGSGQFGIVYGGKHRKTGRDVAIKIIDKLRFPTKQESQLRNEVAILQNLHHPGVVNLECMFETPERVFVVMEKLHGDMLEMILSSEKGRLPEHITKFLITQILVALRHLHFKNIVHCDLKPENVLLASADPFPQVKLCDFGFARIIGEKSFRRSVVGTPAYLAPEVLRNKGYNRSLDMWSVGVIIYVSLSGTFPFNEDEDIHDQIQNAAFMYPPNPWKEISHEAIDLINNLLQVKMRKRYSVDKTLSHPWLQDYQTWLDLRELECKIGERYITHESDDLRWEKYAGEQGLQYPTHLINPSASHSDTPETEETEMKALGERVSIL
Procedure: Phosphorylation of HDAC5 was detected in a kinase reaction having 1 µCi [γ-^32P] […] The reaction was incubated at 30°C for 10 minutes and 25 µL of the reaction was spotted on Whatman P81 filter paper. The filter paper was washed 3 times in 0.5% phosphoric acid, air dried and counted using Beckman LS6500 multipurpose scintillation counter. Percent PKD1 inhibition was graphed using GraphPad Prism software 5.0.

Row | IC50 (PKD1; mean ± SEM, read-out: IC50 PKD1) [nM] | IC50 (PKD1; value in the figure, read-out: PKD1 IC50) [nM] | Compound | effect of PKD1 or PKD3 overexpression on inhibition of cell invasion [1] | effect of PKD1 or PKD3 overexpression on inhibition of cell migration [2]
1 | – | – | CC(C)(C)n1nc(-c2cccc3ccccc23)c2c(N)ncnc21 [Compound 1-NA-PP1, 1-(t-Butyl)-3-(naphthalen-1-yl)-1H-pyrazolo[3,4-d]pyrimidin-4-amine] | completely reversed | did not affect
2 | 154 | 162 | O=C(c1ccc(Nc2nccc(-c3cc4ccccc4s3)n2)cc1)N1CCC(N2CCCC2)CC1 [IKK-16, reference compound] | – | –
